Assay results published in ChEMBL document CHEMBL1201862, “PubChem BioAssay data set” (2004).
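A five-concentration, 48-hour dose response in 96-well plates underlies each endpoint, interpolated linearly between surrounding concentrations. GI50: concentration for 50% inhibition of growth.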 Activity calls are given as the source filed them. Rule as the data show it: active = GI50 up to about 1.1 µM and inactive = higher.

Tests used:
Assay in all cases: NCI tumour cell line growth inhibition, 48 h
[1] = tested on: NCI/ADR-RES
[2] = tested on: K562
[3] = tested on: HCC 2998
[4] = tested on: SK-OV-3
[5] = tested on: UO-31
[6] = tested on: OVCAR-5
[7] = tested on: KM12
[8] = tested on: PC-3
[9] = tested on: HT-29
[10] = tested on: MCF7
[11] = tested on: NCI-H522
[12] = tested on: HOP-18
[13] = tested on: IGROV-1
[14] = tested on: SN12C
[15] = tested on: RXF 393
[16] = tested on: KM-20L2
[17] = tested on: CAKI-1
[18] = tested on: SK-MEL-28
[19] = tested on: DMS-114
[20] = tested on: DU-145
[21] = tested on: SW-620
[22] = tested on: U-251
[23] = tested on: UACC-257
[24] = tested on: M19-MEL
[25] = tested on: OVCAR-8
[26] = tested on: DMS-273
[27] = tested on: LOX IMVI
[28] = tested on: Malme-3M
[29] = tested on: RPMI-8226
[30] = tested on: HOP-62
[31] = tested on: OVCAR-4
[32] = tested on: SF-268
[33] = tested on: MOLT-4
[34] = tested on: SNB-19
[35] = tested on: NCI-H226
[36] = tested on: MDA-N
[37] = tested on: SNB-78
[38] = tested on: MDA-MB-231
[39] = tested on: DLD-1
[40] = tested on: 786-0
[41] = tested on: COLO 205
[42] = tested on: HCT-15
[43] = tested on: HOP-92
[44] = tested on: ACHN
[45] = tested on: SNB-75
[46] = tested on: BT-549
[47] = tested on: Hs-578T
[48] = tested on: EKVX
[49] = tested on: NCI-H23
[50] = tested on: OVCAR-3
[51] = tested on: NCI-H460
[52] = tested on: UACC-62
[53] = tested on: A498
[54] = tested on: MDA-MB-435
[55] = tested on: SF-539
[56] = tested on: SK-MEL-2
[57] = tested on: M14
[58] = tested on: CCRF-CEM
[59] = tested on: SR
[60] = tested on: HL-60
[61] = tested on: HCT-116
[62] = tested on: SK-MEL-5
[63] = tested on: SF-295
[64] = tested on: A549
[65] = tested on: TK-10
[66] = tested on: T47D
[67] = tested on: XF498
[68] = tested on: LXFL 529

C=C1[C@@H](C)[C@H]2[C@H](Cc3ccccc3)NC(=O)[C@]23OC(=O)/C=C/[C@H](O)CCC[C@@H](C)C/C=C/[C@H]3[C@@H]1O
GI50 [1]: 20.3 µM (inactive)
GI50 [2]: 9.18 µM (inactive)
GI50 [3]: 50 µM (inactive)
GI50 [4]: 32.6 µM (inactive)
GI50 [5]: 0.258 µM (active)
GI50 [6]: 32.2 µM (inactive)
GI50 [7]: 53.3 µM (inactive)
GI50 [8]: 3.76 µM (inactive)
GI50 [9]: 5.82 µM (inactive)
GI50 [10]: 16.6 µM (inactive)
GI50 [11]: 9.23 µM (inactive)
GI50 [12]: 0.156 µM (active)
GI50 [13]: 6.59 µM (inactive)
GI50 [14]: 3.87 µM (inactive)
GI50 [15]: 0.94 µM (active)
GI50 [16]: 15.2 µM (inactive)
GI50 [17]: 0.233 µM (active)
GI50 [18]: 12.8 µM (inactive)
GI50 [19]: 14.5 µM (inactive)
GI50 [20]: 30.1 µM (inactive)
GI50 [21]: 23.2 µM (inactive)
GI50 [22]: 2.08 µM (inactive)
GI50 [23]: 9.62 µM (inactive)
GI50 [24]: 45.8 µM (inactive)
GI50 [25]: 5.43 µM (inactive)
GI50 [26]: 8.93 µM (inactive)
GI50 [27]: 0.486 µM (active)
GI50 [28]: 16.3 µM (inactive)
GI50 [29]: 1.82 µM (inactive)
GI50 [30]: 0.605 µM (active)
GI50 [31]: 8.67 µM (inactive)
GI50 [32]: 2.55 µM (inactive)
GI50 [33]: 4.04 µM (inactive)
GI50 [34]: 5.66 µM (inactive)
GI50 [35]: 1.18 µM (inactive)
GI50 [36]: 14.2 µM (inactive)
GI50 [37]: 1.03 µM (active)
GI50 [38]: 5.31 µM (inactive)
GI50 [39]: 0.828 µM (active)
GI50 [40]: 7.62 µM (inactive)
GI50 [41]: 0.713 µM (active)
GI50 [42]: 0.619 µM
GI50 [43]: 0.436 µM (active)
GI50 [44]: 4.4 µM (inactive)
GI50 [45]: 0.0748 µM (active)
GI50 [46]: 15.4 µM (inactive)
GI50 [47]: 5.89 µM (inactive)
GI50 [48]: 10.7 µM (inactive)
GI50 [49]: 7 µM (inactive)
GI50 [50]: 7.48 µM (inactive)
GI50 [51]: 2.62 µM (inactive)
GI50 [52]: 22.8 µM (inactive)
GI50 [53]: 1.83 µM (inactive)
GI50 [54]: 21.8 µM (inactive)
GI50 [55]: 0.465 µM (active)
GI50 [56]: 24.2 µM (inactive)
GI50 [57]: > 100 µM (inactive)
GI50 [58]: 2.37 µM (inactive)
GI50 [59]: > 100 µM (inactive)
GI50 [60]: 16.1 µM (inactive)
GI50 [61]: 8.41 µM (inactive)
GI50 [62]: 9.53 µM (inactive)
GI50 [63]: 0.979 µM (active)
GI50 [64]: 2.85 µM (inactive)
GI50 [65]: 4.06 µM (inactive)
GI50 [66]: 2.92 µM (inactive)
GI50 [67]: 0.571 µM (active)

Cc1noc2c1C(=O)CCC2
GI50 [2]: > 100 µM (inactive)
GI50 [4]: > 100 µM (inactive)
GI50 [5]: > 100 µM (inactive)
GI50 [6]: > 100 µM (inactive)
GI50 [9]: > 100 µM (inactive)
GI50 [11]: > 100 µM (inactive)
GI50 [12]: > 100 µM (inactive)
GI50 [14]: > 100 µM (inactive)
GI50 [15]: > 100 µM (inactive)
GI50 [16]: > 100 µM (inactive)
GI50 [17]: > 100 µM (inactive)
GI50 [18]: > 100 µM (inactive)
GI50 [19]: > 100 µM (inactive)
GI50 [21]: > 100 µM (inactive)
GI50 [68]: > 100 µM (inactive)
GI50 [23]: > 100 µM (inactive)
GI50 [24]: > 100 µM (inactive)
GI50 [25]: > 100 µM (inactive)
GI50 [27]: > 100 µM (inactive)
GI50 [28]: > 100 µM (inactive)
GI50 [29]: > 100 µM (inactive)
GI50 [31]: > 100 µM (inactive)
GI50 [32]: > 100 µM (inactive)
GI50 [33]: > 100 µM (inactive)
GI50 [35]: > 100 µM (inactive)
GI50 [37]: > 100 µM (inactive)
GI50 [39]: > 100 µM (inactive)
GI50 [40]: > 100 µM (inactive)
GI50 [41]: > 100 µM (inactive)
GI50 [43]: > 100 µM (inactive)
GI50 [44]: > 100 µM (inactive)
GI50 [45]: > 100 µM (inactive)
GI50 [48]: > 100 µM (inactive)
GI50 [50]: > 100 µM (inactive)
GI50 [52]: > 100 µM (inactive)
GI50 [55]: > 100 µM (inactive)
GI50 [56]: > 100 µM (inactive)
GI50 [57]: > 100 µM (inactive)
GI50 [58]: > 100 µM (inactive)
GI50 [59]: > 100 µM (inactive)
GI50 [60]: > 100 µM (inactive)
GI50 [61]: > 100 µM (inactive)
GI50 [65]: > 100 µM (inactive)
GI50 [67]: > 100 µM (inactive)

O=C1C(c2ccccc2)=[N+]([O-])c2cc([N+](=O)[O-])ccc21
GI50 [2]: 22.8 µM (inactive)
GI50 [3]: 27.5 µM (inactive)
GI50 [4]: > 100 µM (inactive)
GI50 [5]: 52.1 µM (inactive)
GI50 [6]: 69.8 µM (inactive)
GI50 [7]: 20.5 µM (inactive)
GI50 [9]: 21.9 µM (inactive)
GI50 [11]: 15.3 µM (inactive)
GI50 [12]: 88.1 µM (inactive)
GI50 [13]: 22.4 µM (inactive)
GI50 [14]: 25.6 µM (inactive)
GI50 [15]: 15.9 µM (inactive)
GI50 [16]: 23.5 µM (inactive)
GI50 [18]: 22.6 µM (inactive)
GI50 [19]: 14.3 µM (inactive)
GI50 [21]: 60.3 µM (inactive)
GI50 [22]: 27.7 µM (inactive)
GI50 [23]: 18.5 µM (inactive)
GI50 [24]: 17.7 µM (inactive)
GI50 [25]: 16.4 µM (inactive)
GI50 [27]: 14.3 µM (inactive)
GI50 [28]: 20.6 µM (inactive)
GI50 [29]: 22.8 µM (inactive)
GI50 [30]: > 100 µM (inactive)
GI50 [32]: 19.7 µM (inactive)
GI50 [33]: 18.7 µM (inactive)
GI50 [34]: 57 µM (inactive)
GI50 [35]: 73.3 µM (inactive)
GI50 [39]: 21.6 µM (inactive)
GI50 [40]: 26.3 µM (inactive)
GI50 [41]: 21.5 µM (inactive)
GI50 [42]: 21.4 µM
GI50 [43]: 30.5 µM (inactive)
GI50 [44]: 24.9 µM (inactive)
GI50 [45]: 41.9 µM (inactive)
GI50 [48]: 17.4 µM (inactive)
GI50 [49]: 43.6 µM (inactive)
GI50 [50]: 18.2 µM (inactive)
GI50 [51]: 24.7 µM (inactive)
GI50 [52]: 13.1 µM (inactive)
GI50 [53]: 27.6 µM (inactive)
GI50 [55]: 25.5 µM (inactive)
GI50 [56]: > 100 µM (inactive)
GI50 [57]: > 10 µM (inactive)
GI50 [58]: 8.93 µM (inactive)
GI50 [60]: 7.52 µM (inactive)
GI50 [61]: 23.8 µM (inactive)
GI50 [62]: 19.3 µM (inactive)
GI50 [63]: 48.2 µM (inactive)
GI50 [64]: 32 µM (inactive)
GI50 [65]: 20.1 µM (inactive)
GI50 [67]: 24 µM (inactive)
